Source: PubChem BioAssay (NCI)
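Test compounds were applied to cells in 96-well plates for 48 hours at 5 doses. TGI: concentration producing complete growth inhibition.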

What was measured:
Assay in all cases: growth of human tumour cells (NCI), 48 h
786-0 renal = system: 786-0 renal
A498 renal = system: A498 renal
A549 NSCLC = system: A549 NSCLC
ACHN renal = system: ACHN renal
CAKI-1 renal = system: CAKI-1 renal
CCRF-CEM leukemia = system: CCRF-CEM leukemia
COLO 205 colon = system: COLO 205 colon
DLD-1 colon = system: DLD-1 colon
DMS 114 small cell lung = system: DMS 114 small cell lung
EKVX NSCLC = system: EKVX NSCLC
HCC-2998 colon = system: HCC-2998 colon
HCT-116 colon = system: HCT-116 colon
HCT-15 colon = system: HCT-15 colon
HOP-18 NSCLC = system: HOP-18 NSCLC
HOP-62 NSCLC = system: HOP-62 NSCLC
HOP-92 NSCLC = system: HOP-92 NSCLC
HT29 colon = system: HT29 colon
IGROV1 ovarian = system: IGROV1 ovarian
K-562 leukemia = system: K-562 leukemia
KM12 colon = system: KM12 colon
KM20L2 colon = system: KM20L2 colon
LOX IMVI melanoma = system: LOX IMVI melanoma
M14 melanoma = system: M14 melanoma
M19-MEL melanoma = system: M19-MEL melanoma
MALME-3M melanoma = system: MALME-3M melanoma
MOLT-4 leukemia = system: MOLT-4 leukemia
NCI-H226 lung = system: NCI-H226 lung
NCI-H23 lung = system: NCI-H23 lung
NCI-H460 lung = system: NCI-H460 lung
NCI-H522 lung = system: NCI-H522 lung
OVCAR-3 ovarian = system: OVCAR-3 ovarian
OVCAR-4 ovarian = system: OVCAR-4 ovarian
OVCAR-5 ovarian = system: OVCAR-5 ovarian
OVCAR-8 ovarian = system: OVCAR-8 ovarian
RPMI-8226 leukemia = system: RPMI-8226 leukemia
RXF 393 renal = system: RXF 393 renal
RXF-631 renal = system: RXF-631 renal
SF-268 CNS = system: SF-268 CNS
SF-295 CNS = system: SF-295 CNS
SF-539 CNS = system: SF-539 CNS
SK-MEL-2 melanoma = system: SK-MEL-2 melanoma
SK-MEL-28 melanoma = system: SK-MEL-28 melanoma
SK-MEL-5 melanoma = system: SK-MEL-5 melanoma
SK-OV-3 ovarian = system: SK-OV-3 ovarian
SN12C renal = system: SN12C renal
SNB-19 CNS = system: SNB-19 CNS
SW-620 colon = system: SW-620 colon
TK-10 renal = system: TK-10 renal
U251 CNS = system: U251 CNS
UACC-257 melanoma = system: UACC-257 melanoma
UACC-62 melanoma = system: UACC-62 melanoma
UO-31 renal = system: UO-31 renal
XF 498 CNS = system: XF 498 CNS

Measured: TGI

CCOc1ccc(NC(=O)C(=O)CC(=O)C2=C(C)Nc3ccccc3S2)cc1
> 50 µM: 786-0 renal | A498 renal | A549 NSCLC | ACHN renal | CAKI-1 renal | CCRF-CEM leukemia | COLO 205 colon | DLD-1 colon | DMS 114 small cell lung | EKVX NSCLC | HCC-2998 colon | HCT-116 colon | HCT-15 colon | HOP-18 NSCLC | HOP-62 NSCLC | HOP-92 NSCLC | HT29 colon | IGROV1 ovarian | K-562 leukemia | KM12 colon | KM20L2 colon | LOX IMVI melanoma | M14 melanoma | M19-MEL melanoma | MALME-3M melanoma | MOLT-4 leukemia | NCI-H226 lung | NCI-H23 lung | NCI-H460 lung | NCI-H522 lung | OVCAR-3 ovarian | OVCAR-4 ovarian | OVCAR-5 ovarian | OVCAR-8 ovarian | RPMI-8226 leukemia | RXF 393 renal | RXF-631 renal | SF-268 CNS | SF-295 CNS | SF-539 CNS | SK-MEL-2 melanoma | SK-MEL-28 melanoma | SK-MEL-5 melanoma | SK-OV-3 ovarian | SN12C renal | SNB-19 CNS | SW-620 colon | TK-10 renal | U251 CNS | UACC-257 melanoma | UACC-62 melanoma | UO-31 renal | XF 498 CNS
